Laboratory results as given in US4731370A, “Pyridyl ester containing 1,4-dihydropyridine derivatives and salts thereof and pharmaceutical composition containing the same” (Toyama Chemical Co., Ltd., priority 1984, dated 1988).

Test system: coronary vessel (isolated guinea pig heart)
Experiment: Coronary vasodilating activity (isolated perfused guinea pig heart, coronary effluent)
Design: species or system guinea pig (Hartley strain)
Settings: Langendorff perfusion, 0.1 ml into aorta, hydrochloride
Protocol: (§1) The compounds of this invention to be tested were used in the form of a hydrochloride.
The heart of a guinea pig (Hartley strain, male, 500-700 g, 3 heads per group) was isolated and set in the Landendorff perfusing apparatus. About 0.5% defibrinated blood was fed to the apparatus, and the Krebs bicarbonate solution, into which a mixed gas consisting of 95% of O2 and 5% of CO2 had been bubbled was perfused over the heart, after which a 1 mg/ml solution of the test compound in an aqueous solution containing 10% by volume of dimethylsulfoxide and 10% of polyoxyethylfatty acid glyceride [Cremophor EL manufactured by Sigma] was prepared, diluted with a saline solution to the desired concentration, and then administered into the heart in an amount of 0.1 ml through the rubber tube attached to the cannula inserted retrogressively into the aorta. The vasodilating activity was determined by measuring the amount of the solution effluent from the coronary vessel after passing through the aorta by means of an electric drop counter (universal drop counter manufactured by Natsume Seisakusho) and indicated as ED50 value which is the amount necessary for the amount of the effluent solution to increase 50% as compared with those before addition of the test compound.

SMILES | ED50 (amount necessary for the amount of the effluent solution to increase 50%)
CCOC(=O)C1=C(C)NC(C)=C(C(=O)OCCOC/C=C/c2ccc(Cn3ccnc3)cc2)C1c1cccc([N+](=O)[O-])c1 (centres unmarked) [compound 13] | 0.036 μg/i.c.
CCOC(=O)C1=C(C)NC(C)=C(C(=O)OCCOCc2ccc(Cn3ccnc3)cc2)C1c1cccc([N+](=O)[O-])c1 (centres unmarked) [compound 14] | 0.023 μg/i.c.
CCOC(=O)C1=C(C)NC(C)=C(C(=O)OCCOCc2ccc(Cc3cccnc3)cc2)C1c1cccc([N+](=O)[O-])c1 (centres unmarked) [compound 15] | 0.0092 μg/i.c.
CCOC(=O)C1=C(C)NC(C)=C(C(=O)OCCOCCCc2ccc(Cc3cccnc3)cc2)C1c1cccc([N+](=O)[O-])c1 (centres unmarked) [compound 18] | 0.026 μg/i.c.
CCOC(=O)C1=C(C)NC(C)=C(C(=O)OCCOCCCc2ccc(Oc3cccnc3)cc2)C1c1cccc([N+](=O)[O-])c1 (centres unmarked) [compound 20] | 0.024 μg/i.c.
COC(=O)C1=C(C)NC(C)=C(C(=O)OCCOC/C=C/c2ccc(Cc3cccnc3)cc2)C1c1cccc([N+](=O)[O-])c1 (centres unmarked) [compound 22] | 0.016 μg/i.c.
CC1=C(C(=O)OCCOC/C=C/c2ccc(Cc3cccnc3)cc2)C(c2cccc([N+](=O)[O-])c2)C(C(=O)OCCN(C)Cc2ccccc2)=C(C)N1 (centres unmarked) [compound 23] | 0.019 μg/i.c.
CC1=C(C(=O)OCCOC/C(C)=C/c2ccc(Cc3cccnc3)cc2)C(c2cccc([N+](=O)[O-])c2)C(C(=O)OC(C)C)=C(C)N1 (centres unmarked) [compound 29] | 0.019 μg/i.c.

Test system: mouse pulmonary infraction model
Experiment: Antithrombosis activity, mouse pulmonary infraction model, prevention of death and paralysis (0.10 ml epinephrine/collagen)
Assay type: in vivo, mouse (ICR strain)
Settings: 1 h; mouse, oral, 10 mg/kg, challenge after one hour; control 25.7%; read-out: Preventive percentage of death + paralysis for 10 minutes or more
Protocol: as §1
According to the G. DiMinno and M. J. Silver method [J. Pharmacol. Exp. Therap., 225 (1) 57-60 (1983)], a solution of the compound to be tested was orally administered to a mouse (ICR strain, male, 4 weeks old), and 0.15 ml of a mixed solution of epinephrine (100 μM) and collagen (150 μg/ml) was intravenously administered to the mouse after one hour, after which the paralytic time was measured. Comparing the paralytic time of the control group, the paralytic time-shortening percentage due to the compound to be tested was determined. The results obtained are shown in Table 4, in which the case where the paralytic time was 15 minutes was calculated as death.
Moreover, the same experiment was repeated, except that 0.10 ml of a mixed solution of epinephrine (100 μM) and collagen (150 μg/ml) was intravenously administered to the mouse and the effect of preventing the appearance of death and a case where the paralytic time was 10 minutes or more was checked and the results thereof are shown in Table 5.
(§2) The test compounds shown in Table 4 were adjusted to the desired concentrations with water, and the test compounds shown in Table 5 were adjusted to a concentration of 5 mg/ml with an aqueous solution containing 10% by volume of each of dimethyl sulfoxide and Cremophor, and then diluted with water to the desired concentrations.

SMILES | responders at 10 mg/kg
CCOC(=O)C1=C(C)NC(C)=C(C(=O)OCCOCCCc2ccc(Oc3cccnc3)cc2)C1c1cccc([N+](=O)[O-])c1 (centres unmarked) [compound 20] | 70%
CC1=C(C(=O)OCCOC/C=C/c2ccc(Cc3cccnc3)cc2)C(c2cccc([N+](=O)[O-])c2)C(C(=O)OC(C)C)=C(C)N1 (centres unmarked) [compound 24] | 90%
COC(=O)C1=C(C)NC(C)=C(C(=O)OCCOC/C=C/c2ccc(Cc3cccnc3)cc2)C1c1ccccc1C(F)(F)F (centres unmarked) [compound 26] | 90%
CCOC(=O)C1=C(C)NC(C)=C(C(=O)OCCOCCc2ccc(Cc3cccnc3)cc2)C1c1cccc([N+](=O)[O-])c1 (centres unmarked) [compound 27] | 77.8%
CC1=C(C(=O)OCCOC/C(C)=C/c2ccc(Cc3cccnc3)cc2)C(c2cccc([N+](=O)[O-])c2)C(C(=O)OC(C)C)=C(C)N1 (centres unmarked) [compound 29] | 90%

Test system: vertebral artery blood flow of a dog
Experiment: Vertebral artery blood flow increasing activity
Assay type: in vivo, dog (mongrel)
Settings: i.v., amount with same activity as 1 mg/kg (i.v.) papaverine hydrochloride, ratio to papaverine hydrochloride
Protocol: as §1
The vertebral artery blood flow of a dog (mongrel, 12-22 kg, 2-3 heads per group) anesthetized with pentobarbital sodium (30 mg/kg, i.v.) was measured by means of an electromagnetic flow meter (MFV-2100 manufactured by Nihon Kohden Kogyo).
The test compounds 1, 3 and 10 were adjusted to a concentration of 1 mg/ml with distilled water, and then diluted with a saline solution to the desired concentrations, after which the thus diluted solutions were intravenously administered, and the test compounds 12, 15, 18, 19, 20, 24, 29, 30, 32 and 33 were formed into solutions in the same manner as in Item 1 above and then intravenously administered.

SMILES | Effect ratio
COCCOC(=O)C1=C(C)NC(C)=C(C(=O)OCCN(C)C/C(C)=C/c2ccc(Cc3cccnc3)cc2)C1c1cccc([N+](=O)[O-])c1 (centres unmarked) [compound 3] | 385
CCOC(=O)C1=C(C)NC(C)=C(C(=O)OCCOCc2ccc(Cc3cccnc3)cc2)C1c1cccc([N+](=O)[O-])c1 (centres unmarked) [compound 15] | 238
CCOC(=O)C1=C(C)NC(C)=C(C(=O)OCCOCCCc2ccc(Cc3cccnc3)cc2)C1c1cccc([N+](=O)[O-])c1 (centres unmarked) [compound 18] | 233
CCOC(=O)C1=C(C)NC(C)=C(C(=O)OCCOCCCc2ccc(Oc3cccnc3)cc2)C1c1cccc([N+](=O)[O-])c1 (centres unmarked) [compound 20] | 535
CC1=C(C(=O)OCCOC/C=C/c2ccc(Cc3cccnc3)cc2)C(c2cccc([N+](=O)[O-])c2)C(C(=O)OC(C)C)=C(C)N1 (centres unmarked) [compound 24] | 286
CC1=C(C(=O)OCCOC/C(C)=C/c2ccc(Cc3cccnc3)cc2)C(c2cccc([N+](=O)[O-])c2)C(C(=O)OC(C)C)=C(C)N1 (centres unmarked) [compound 29] | 426
COC(=O)C1=C(C)NC(C)=C(C(=O)OCC(C)(C)COC/C(C)=C/c2ccc(Cc3cccnc3)cc2)C1c1cccc([N+](=O)[O-])c1 (centres unmarked) [compound 32] | 417
CCOC(=O)C1=C(C)NC(C)=C(C(=O)OCC(C)(C)COC/C(C)=C/c2ccc(Cc3cccnc3)cc2)C1c1cccc([N+](=O)[O-])c1 (centres unmarked) [compound 33] | 333

Test system: not listed separately
Experiment: Acute toxicity, intravenous, mice
Settings: mouse, in vivo, mice (ICR, male, 4 weeks old, 5 per group)

SMILES | LD50
CC1=C(C(=O)OCCN(C)C/C=C/c2ccc(Cn3ccnc3)cc2)C(c2cccc([N+](=O)[O-])c2)C(C(=O)OC(C)C)=C(C)N1 (centres unmarked) [compound 9] | ≥ 30 mg/kg

Test system: Thromboxane-Synthesizing Enzyme
Experiment: Thromboxane-synthesizing enzyme-inhibitory activity (MDA production in platelet-rich plasma after oral dosing)
Assay type: in vivo, rat (Wistar strain)
Settings: rat, 3 mg/kg, blood after one hour
Protocol: as §1
To a rat (Wistar strain, male, 300-350 g, 4 heads per group) which had been starved overnight was orally administered a test compound solution, and blood was collected from the abdominal aorta using citric acid after one hour. Two milliliters of a 1×10^9 /ml platelet-rich plasma (PRP) was preincubated at 37° C. for 2 minutes. Subsequently, 0.1 ml of 10 mM sodium archidonate was added, and the resulting mixture was subjected to reaction for 6 minutes, after which indomethacin was added thereto to terminate the reaction. The reaction mixture was subjected to deproteinization treatment and reacted with thiobarbituric acid (TBA) reagent, after which the reaction mixture was subjected to extraction with 3 ml of n-butanol. The resulting extract was subjected to colorimetry (λ=532 nm) to determine the amount of malondialdehyde (MDA) produced. As to the platelet-poor plasma (PPP) obtained from the same rat as above, the same procedure as above was repeated to determine the amount of MDA produced, and the difference between the two is indicated as MDA value. Comparing with the MDA values of the control group, the MDA production-inhibition (%) was determined.
as §2, with “1-9” for “shown in Table 4”, “water” for “water,”, “11-33 and nicardipine” for “shown in Table 5”, “10%” for “10% by volume”, “Cremophor” for “Cremophor,”

SMILES | MDA production-inhibition
COCCOC(=O)C1=C(C)NC(C)=C(C(=O)OCCN(C)C/C(C)=C/c2ccc(Cc3cccnc3)cc2)C1c1cccc([N+](=O)[O-])c1 (centres unmarked) [compound 3] | 65.8%
CC1=C(C(=O)OCCN(C)C/C=C/c2ccc(Cn3ccnc3)cc2)C(c2cccc([N+](=O)[O-])c2)C(C(=O)OC(C)C)=C(C)N1 (centres unmarked) [compound 9] | 47.2%
CCOC(=O)C1=C(C)NC(C)=C(C(=O)OCCOCCCc2ccc(Cn3ccnc3)cc2)C1c1cccc([N+](=O)[O-])c1 (centres unmarked) [compound 11] | 37.8%
CCOC(=O)C1=C(C)NC(C)=C(C(=O)OCCOC/C=C/c2ccc(Cn3ccnc3)cc2)C1c1cccc([N+](=O)[O-])c1 (centres unmarked) [compound 13] | 47.2%
CCOC(=O)C1=C(C)NC(C)=C(C(=O)OCCOCCCc2ccc(Cc3cccnc3)cc2)C1c1cccc([N+](=O)[O-])c1 (centres unmarked) [compound 18] | 40.9%
CCOC(=O)C1=C(C)NC(C)=C(C(=O)OCCOCCc2ccc(Cc3cccnc3)cc2)C1c1cccc([N+](=O)[O-])c1 (centres unmarked) [compound 27] | 35.7%
CCOC(=O)C1=C(C)NC(C)=C(C(=O)OCCSC/C=C/c2ccc(Cc3cccnc3)cc2)C1c1cccc([N+](=O)[O-])c1 (centres unmarked) [compound 28] | 31.2%
CC1=C(C(=O)OCCOC/C(C)=C/c2ccc(Cc3cccnc3)cc2)C(c2cccc([N+](=O)[O-])c2)C(C(=O)OC(C)C)=C(C)N1 (centres unmarked) [compound 29] | 56.8%
CCOC(=O)C1=C(C)NC(C)=C(C(=O)OCC(C)COC/C(C)=C/c2ccc(Cc3cccnc3)cc2)C1c1cccc([N+](=O)[O-])c1 (centres unmarked) [compound 31] | 50.5%
CCOC(=O)C1=C(C)NC(C)=C(C(=O)OCC(C)(C)COC/C(C)=C/c2ccc(Cc3cccnc3)cc2)C1c1cccc([N+](=O)[O-])c1 (centres unmarked) [compound 33] | 41.5%
